Experimental findings from PubChem BioAssay (NCI) are described below.

Several values for one entry are separate records, joined by “and”; a condition that tells them apart may be missing. Identical values can stand only once.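 1) Cells in 96-well plates. 2) Compound, 48 h, 5 concentrations. 3) Linear interpolation between surrounding doses. 4) Unreached endpoint = highest concentration. GI50 is the concentration that inhibits growth by half. TGI: concentration producing complete growth inhibition.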 Bounds are passed on as bounds.

Test systems include K-562 leukemia; EKVX NSCLC; LOX IMVI melanoma; SK-MEL-2 melanoma; SW-620 colon; NCI-H522 lung; ACHN renal; SF-268 CNS; A549 NSCLC; MOLT-4 leukemia.
Holding throughout (test): NCI anticancer screen, dose series, 48 h

As to `Cc1cn2c(/C=N/NC3=NCCN3)c(-c3ccc(Cl)c([N+](=O)[O-])c3)nc2s1`, the GI50 in the assay on K-562 leukemia is 1.08 µM; with EKVX NSCLC, 3.07 µM; with LOX IMVI melanoma it was 0.871 µM; in the assay on SK-MEL-2 melanoma it was 0.645 µM; with SW-620 colon, 0.941 µM. Also, the TGI in the assay with K-562 leukemia is 2.34 µM; with EKVX NSCLC it was 10.8 µM; in the assay with LOX IMVI melanoma it was 1.6 µM; in the assay with SK-MEL-2 melanoma, 1.81 µM; with SW-620 colon it was 2.46 µM.

`Fc1ccc(-c2nn3c(COc4ccccc4Cl)nnc3s2)cc1Oc1ccccc1`: the GI50 in the assay on K-562 leukemia was > 100 µM; with EKVX NSCLC, 49 µM; in the assay on NCI-H522 lung, 29.6 µM; in the assay on LOX IMVI melanoma it was 22.3 µM; in the assay on ACHN renal, 25 µM; in the assay on SF-268 CNS, 44.8 µM. In addition, the GI50 with SW-620 colon was > 100 µM; in the assay on A549 NSCLC, 40.2 µM. In addition, the TGI in the assay with K-562 leukemia was > 100 µM; with EKVX NSCLC, > 100 µM; in the assay with NCI-H522 lung it was > 100 µM; in the assay with LOX IMVI melanoma, 51.9 µM; with ACHN renal, 65.3 µM; with SF-268 CNS, > 100 µM. The TGI in the assay with SW-620 colon and with A549 NSCLC was > 100 µM throughout.

For the compound `c1ccc2c(CNCCCN3CCN(CCCNCc4cccc5ccccc45)CC3)cccc2c1`, the TGI in the assay on EKVX NSCLC worked out at 13.1 µM; with NCI-H522 lung, 2.99 µM; in the assay with LOX IMVI melanoma, 2.67 µM; in the assay on ACHN renal it was 6.85 µM; in the assay on SF-268 CNS it was 6.11 µM; with SK-MEL-2 melanoma, 3.02 µM. In addition, the TGI was 2.92 µM in the assay on MOLT-4 leukemia, 3.25 µM in the assay on SW-620 colon and 4.25 µM with A549 NSCLC.

For `NC(=S)N/N=C/c1cn(CCCl)c2ccccc12`, the TGI with K-562 leukemia, with EKVX NSCLC, with NCI-H522 lung, with LOX IMVI melanoma, in the assay with SF-268 CNS and with SK-MEL-2 melanoma was > 100 µM in each case. Also, the TGI in the assay with MOLT-4 leukemia, in the assay on SW-620 colon and in the assay on A549 NSCLC was > 100 µM throughout.

Take `CCCCN(CCCC)C(=O)C(=O)C(C(=O)C(=O)OC)c1nc2ccccc2o1` (configuration not stated): the TGI in the assay with K-562 leukemia, in the assay on NCI-H522 lung, with LOX IMVI melanoma, in the assay with ACHN renal, in the assay with SF-268 CNS and with SK-MEL-2 melanoma was > 100 µM throughout. In addition, the TGI in the assay with MOLT-4 leukemia, with SW-620 colon and in the assay on A549 NSCLC was > 100 µM each time.

As to `O=C(CSc1nc(-c2ccccc2)c(-c2ccccc2)[nH]1)N/N=C/c1ccc([N+](=O)[O-])cc1`, the TGI with NCI-H522 lung was 28.9 µM; with LOX IMVI melanoma it was 30.4 µM; in the assay with ACHN renal, 92.6 µM; in the assay on SF-268 CNS it was 39.2 µM; with SK-MEL-2 melanoma it was 26.9 µM; in the assay with MOLT-4 leukemia it was 48.5 µM. The compound further showed a TGI with A549 NSCLC of 57.5 µM.

`Cc1ccccc1C(C#N)/C(=N/NC(N)=S)C(=O)Nc1c(C)cccc1C` (configuration not stated): the TGI with EKVX NSCLC, in the assay on LOX IMVI melanoma, in the assay on ACHN renal, in the assay on SF-268 CNS, in the assay with SK-MEL-2 melanoma and with MOLT-4 leukemia was > 100 µM in each case. For the same compound, the TGI in the assay on SW-620 colon and in the assay with A549 NSCLC was > 100 µM in each case.

Consider `Nc1cc2c(c3ccccc13)C(CCl)CN2C(=O)c1cc2cc(NC(=O)c3cc4ccccc4o3)ccc2[nH]1` (configuration not stated), for which the TGI in the assay with EKVX NSCLC was 0.43 µM; with NCI-H522 lung, 0.00332 µM and < 0.11 µM; in the assay with LOX IMVI melanoma, 256 µM; with SK-MEL-2 melanoma, 0.0109 µM and < 0.11 µM. The GI50 in the assay on NCI-H522 lung is > 0.11 µM; with LOX IMVI melanoma it was > 0.11 µM; in the assay on ACHN renal, 0.000208 µM; with SK-MEL-2 melanoma, > 0.11 µM.

For `COC1OC(CO)C(O)C(NC(=O)N(C)N=O)C1O` (configuration not stated), the TGI in the assay with K-562 leukemia, with EKVX NSCLC, in the assay with NCI-H522 lung, in the assay on ACHN renal, with SF-268 CNS and in the assay on SK-MEL-2 melanoma was > 100 µM each time. In addition, the TGI with MOLT-4 leukemia, in the assay on SW-620 colon and in the assay with A549 NSCLC was > 100 µM each time.

For `CN1C[C@@H]2CC(=O)CC[C@@H]2C[C@H]1C#N`, the TGI in the assay with K-562 leukemia, in the assay with NCI-H522 lung, in the assay on LOX IMVI melanoma, in the assay with ACHN renal, with SF-268 CNS and with SK-MEL-2 melanoma was > 100 µM each time. The TGI in the assay with MOLT-4 leukemia, in the assay with SW-620 colon and with A549 NSCLC was > 100 µM each time.

Turning to `O=C(Cc1c(C(=O)Nc2ccccc2)sc(C(=O)Nc2ccccc2)c1CC(=O)Nc1ccccc1)Nc1ccccc1`, the TGI was > 100 µM in the assay on K-562 leukemia; > 100 µM with EKVX NSCLC; > 100 µM in the assay on NCI-H522 lung; > 100 µM in the assay with LOX IMVI melanoma; > 100 µM in the assay with ACHN renal; 13.7 µM in the assay on SF-268 CNS. The TGI with SW-620 colon and with A549 NSCLC was > 100 µM in each case.

`Cc1ccc(S(=O)OC2c3ccccc3Cc3ccccc32)cc1` (configuration not stated): the TGI in the assay on K-562 leukemia worked out at 62.1 µM; with EKVX NSCLC, 34.5 µM; with NCI-H522 lung it was 27.1 µM; in the assay with LOX IMVI melanoma, 28.8 µM; with ACHN renal, 49 µM; in the assay on SF-268 CNS, 47.1 µM. Further, the results for the TGI with MOLT-4 leukemia, with SW-620 colon and with A549 NSCLC were 75.7 µM, 59.6 µM and 87.2 µM, respectively.

Regarding `S=C1NC(c2ccccc2)=NC(Cc2ccccc2)(c2ccccc2)N1c1ccccc1` (configuration not stated), the TGI with K-562 leukemia, with EKVX NSCLC, in the assay with LOX IMVI melanoma, in the assay with ACHN renal, with SF-268 CNS and in the assay on MOLT-4 leukemia was > 100 µM each time. Besides, the TGI in the assay with SW-620 colon and in the assay on A549 NSCLC was > 100 µM in each case.

For `O=C(O)c1cc(C(=O)C(=O)c2cc(C(=O)O)c(O)c3ccccc23)c2ccccc2c1O`, the TGI in the assay on K-562 leukemia, in the assay on EKVX NSCLC, in the assay on NCI-H522 lung, with LOX IMVI melanoma, in the assay with ACHN renal and in the assay on SF-268 CNS was > 100 µM throughout. Further, the TGI in the assay with SK-MEL-2 melanoma, with SW-620 colon and in the assay with A549 NSCLC was > 100 µM in each case.

Consider `S=c1sc2sc(=S)sc2s1`, for which the TGI with K-562 leukemia, in the assay with NCI-H522 lung, in the assay with LOX IMVI melanoma, in the assay on ACHN renal, in the assay on SF-268 CNS and with SK-MEL-2 melanoma was > 100 µM throughout. The TGI with MOLT-4 leukemia, with SW-620 colon and with A549 NSCLC was > 100 µM throughout.
